The results in this text go back to patent US20150038545A1, “HYDROXYPHENYL PYRROLE COMPOUNDS CONTAINING AN HYDROXAMIC ACID AS HDAC INHIBITORS AND MEDICINAL APPLICATIONS THEREOF” (UNIVERSIDAD DEL PAÍS VASCO, priority 2011, published 2015).

The test system of one experiment is BT474. In words: Cancer cell growth inhibition (CellTiter-Glo), BT474. The class given is cell-based. Conditions: Homo sapiens, BT-474; Breast Cancer, BT474, 72 h treatment. As for the experimental part:
(§1) Cell culture-based assays were used to evaluate the ability of compounds of the invention to inhibit cancer cell growth.
(§2) Cells were obtained from the American Type Culture Collection (ATCC). Cells were cultured at 37° C. with 5% CO2 in the appropriate growth medium (see table below), and harvested respectively during the logarithmic growth period and counted with hemocytometer. The cell viability was examined by trypan blue exclusion. Cell concentrations were adjusted to 5.56×10^4 cells/ml with respective medium.
(§3) Stock solutions of test compounds and positive drugs Doxorubicin (Zhejiang, Haizheng, China), Cisplatin (Nanjing Zhiyao, China) and Mitomycin (Zhejiang, Haizheng, China) were prepared in dimethyl sulphoxide (DMSO) or PBS at 20 mM.
(§4) In order to determine the IC50 for each compound, experiments were carried out in 96-well plates and the cell lines seeded at a density of 5,000 cells/well. […] All treatments were performed in triplicate. 10 μl of drug solution was added to each well and incubated for 72 hours. At the end of the incubation, 100 μl of the CellTiter-Glo Reagent were added to each well and the contents were mixed for 2 munites on an orbital shaker to induce cell lysis. The plate was incubated at room temperature for 10 minutes to stabilize luminiscent signal, and luminiscent was recorded. […] In order to calculate IC50 values, dose-responsive curves were fitted using nonlinear regression model with a sigmoidal dose response.

A further experiment relates to OVCAR3. In words: Cancer cell growth inhibition (CellTiter-Glo), OVCAR3. Conditions: Homo sapiens, OVCAR-3; Ovarian Cancer, OVCAR3, 72 h treatment. Type of experiment: cell-based, Human. The protocol:
as §1, §2, §3, §4
On the technique in general: Cellular ATP, detected with luciferase, serves as a proxy for viable cell number.

The next experiment concerns KB. Briefly: Cancer cell growth inhibition (CellTiter-Glo), KB. Conditions: Homo sapiens, Oral Cancer, 72 h treatment. Type of experiment: cell-based, Human. As for the experimental part: as §1, §2, §3, §4
The next experiment has as its system U-87MG. In words: Cancer cell growth inhibition (CellTiter-Glo), U-87MG. Conditions: Homo sapiens, Glioblastoma, 72 h treatment. Type of experiment: cell-based, Human. The protocol:
as §1, §2, §3, §4

The next experiment deals with PANC-1. Briefly: Cancer cell growth inhibition (CellTiter-Glo), PANC-1. Conditions: Homo sapiens; Pancreatic Cancer, PANC-1, 72 h treatment. The class given is cell-based, Human. The protocol:
as §1, §2, §3, §4

For a further experiment, the system named is 143b. Briefly: Cancer cell growth inhibition (CellTiter-Glo), 143b. The class given is cell-based. Conditions: Homo sapiens, Osteosarcoma, 72 h treatment. As for the experimental part:
as §1, §2, §3, §4

For another experiment, the target named is T1, Human HDAC4 (Homo sapiens, UniProt P56524).
T1 construct: Amino acids 627-1085 with N-terminal GST tag, MW=75.2 kDa; GST (N); purchased BioMol, Hamburg, Germany
Briefly: In vitro HDAC4 inhibition, fluorogenic peptide assay. Type of experiment: biochemical. Conditions: for IC50: read-out: IC50 (nM) of enzyme activity HDAC4. The protocol: All HDAC assays were performed using acetylated AMC-labeled peptide substrate: • Substrate for isoforms HDAC1, 2, 3, 4, 5, 6, 7, 9, 10, 11 and HeLa nuclear extract assays: Acetylated fluorogenic peptide from p53 residues 379-382 (RHKKAc) (BioMol. Cat. # KI-104). • Substrate for HDAC8 assays: Acetylated fluorogenic peptide from p53 residues 379-382 (RHKAcKAc) (BioMol. Cat. # KI-178).
Enzymes: • HDAC1 assay: 75 nM Human HDAC1 (GenBank Accession No. NM_004964): Full length with C-terminal GST tag, MW=79.9 kDa, expressed by baculovirus expression system in Sf9 cells (BioMol. Cat. # SE-456). • HDAC2 assay: 5 nM Human HDAC2 (GenBank Accession No. Q92769): Full length with C-terminal His tag, MW=60 kDa, expressed by baculovirus expression system in Sf9 cells (BioMol. Cat. # SE-500). • HDAC3 assay: 2.3 nM Human HDAC3/NcoR2 (GenBank Accession No. NM_003883 for HDAC3, GenBank Accession No.NM_006312 for NcoR2): Complex of human HDAC3, full length with C-terminal His tag, MW=49.7 kDa, and human NCOR2, N-terminal GST tag, MW=39 kDa, co-expressed in baculovirus expression system (BioMol. Cat. # SE-507). • HDAC4 assay: 266 nM Human HDAC4 (GenBank Accession No. NM_006037): Amino acids 627-1085 with N-terminal GST tag, MW=75.2 kDa, expressed in baculovirus expression system (BioMol, Hamburg, Germany). • HDAC5 assay: 588 nM Human HDAC5 (GenBank Accession No. NM_001015053): Full length with Nterminal GST tag, MW=150 kDa, expressed by baculovirus expression system in Sf9 cells (BioMol, Hamburg, Germany). • HDAC6 assay: 13 nM Human HDAC6 (GenBank Accession No. BC069243): Full length with N-terminal GST tag, MW=159 kDa, expressed by baculovirus expression system in Sf9 cells (BioMol. Cat. # SE-508). • HDAC7 assay: 962 nM Human HDAC7 (GenBank Accession No. AY302468): Amino acids 518-end with N-terminal GST tag, MW=78 kDa, expressed in baculovirus expression system (BioMol, Hamburg, Germany). • HDAC8 assay: 119 nM Human HDAC8 (GenBank Accession No. NM018486): Full length, MW=42 kDa, expressed in an E. coli expression system (BioMol. […]
The reactions were carried out in a 96-well microplate for fluorometry in a 50 μl reaction volume. […] The reaction was allowed to develop for 45 minutes at 30° C. with 5% CO2; then the fluorescent signal was measured with an excitation wavelength at 360 nm and an emission wavelength at 460 nm in a microplate-reading fluorometer (GeminiXS; Molecular Devices, Sunnyvale, Calif.). […] IC50 was calculated by fitting the experimental data to a dose-response curve. […]

T1 sequence (P56524 627-1084 limits assumed): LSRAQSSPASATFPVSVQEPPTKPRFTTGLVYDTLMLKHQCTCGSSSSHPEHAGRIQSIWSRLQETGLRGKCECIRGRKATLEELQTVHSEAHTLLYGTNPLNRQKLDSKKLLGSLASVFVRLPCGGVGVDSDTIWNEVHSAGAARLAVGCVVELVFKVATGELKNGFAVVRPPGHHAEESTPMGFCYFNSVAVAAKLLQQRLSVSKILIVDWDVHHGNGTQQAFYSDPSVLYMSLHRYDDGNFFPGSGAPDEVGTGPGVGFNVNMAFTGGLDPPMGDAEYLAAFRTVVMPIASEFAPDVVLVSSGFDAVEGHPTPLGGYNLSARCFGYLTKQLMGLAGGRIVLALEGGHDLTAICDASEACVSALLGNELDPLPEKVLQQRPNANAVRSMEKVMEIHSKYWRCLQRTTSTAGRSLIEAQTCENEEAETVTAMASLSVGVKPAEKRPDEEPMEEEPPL

The IC50 is the concentration needed to halve the response being measured. For the molecule `O=C(CCCCCNC(=O)c1[nH]c(-c2ccccc2)cc1-c1ccc(O)cc1)NO` [Example 1, N-(6-(hydroxyamino)-6-oxohexyl)-3-(4-hydroxyphenyl)-5-phenyl-1H-pyrrole-2-carboxamide], the IC50 worked out at 2.71 µM in the experiment on BT474; 3.3 µM with OVCAR3; 0.95 µM with KB; 5.67 µM with U-87MG; 6.04 µM in the experiment with PANC-1; 1.71 µM with 143b.

Regarding `O=C(CCCCCNC(=O)c1[nH]c(-c2ccc(O)cc2)cc1-c1ccoc1)NO` [Example 5, 3-(3-furyl)-N-(5-(hydroxycarbamoyl)pentyl)-5-(4-hydroxy-phenyl)-1H-pyrrole-2-carboxamide], the IC50 with BT474 was determined as 0.66 µM; in the experiment on OVCAR3, 1.05 µM; in the experiment with KB, 0.87 µM; at Human HDAC4, 143 nM; in the experiment with U-87MG it was 8.72 µM; in the experiment with PANC-1, 29.2 µM. The 50% inhibitory concentration (IC50) in the experiment with 143b amounted to 2.91 µM.

Turning to `O=C(CCCCCNC(=O)c1[nH]c(-c2ccc(O)cc2)cc1-c1ccccc1)NO` [Example 2, N-(6-(hydroxyamino)-6-oxohexyl)-5-(4-hydroxyphenyl)-3-phenyl-1H-pyrrole-2-carboxamide], the IC50 was found to be 3.49 µM in the experiment on BT474; 3.34 µM in the experiment with OVCAR3; 2.23 µM in the experiment on KB; 11.8 µM in the experiment with U-87MG; 27.7 µM in the experiment on PANC-1; 5.38 µM in the experiment on 143b.

For `O=C(CCCCCNC(=O)c1[nH]c(-c2ccc(O)cc2)cc1-c1ccsc1)NO` [Example 6, N-(5-(hydroxycarbamoyl)pentyl)-5-(4-hydroxyphenyl)-3-(3-thienyl)-1H-pyrrole-2-carboxamide], the IC50 is 1.02 µM with BT474; 1.74 µM in the experiment with OVCAR3; 1.45 µM in the experiment on KB; 499 nM on Human HDAC4; 8.98 µM in the experiment on U-87MG; 22.2 µM in the experiment on PANC-1. Also, in the experiment with 143b, half-maximal inhibition (IC50) required 2.72 µM.

On to `COc1ccc(-c2cc(-c3ccccc3)[nH]c2C(=O)NCCCCCC(=O)NO)cc1` [Compound A, N-[6-(hydroxyamino)-6-oxohexyl]-3-(4-methoxyphenyl)-5-phenyl-1H-pyrrole-2-carboxamide, reference compound], for which, at Human HDAC4 (IC50 HDAC4/IC50 HDAC6), the “Selectivity against HDAC6 (IC50 HDACx/IC50 HDAC6) HDAC4” value is 91.9. Moreover, the IC50 on Human HDAC4 was 1840 nM.
